One molecule from ChEMBL document CHEMBL5360568, “Synthesis and anti-Alzheimer potential of novel α-amino phosphonate derivatives and probing their molecular interaction mechanism with acetylcholinesterase” (Eur J Med Chem, 2023) can be followed below.

For orientation: IC50 means the concentration that inhibits the measured activity by half. In general, Ki refers to a measure of affinity in units of concentration, obtained from inhibition or displacement.

Data set [1] addresses T1, Acetylcholinesterase (Homo sapiens, UniProt P22303). The data set is described as follows: Inhibition of human erythrocyte AChE using acetylthiocholine iodide as substrate preincubated for 5 mins followed by substrate addition by DTNB based Ellman's method. (DTNB colorimetry detects thiols as they appear.)
In the next data set the target is Cholinesterase (Equus caballus, UniProt P81908). The data set is described as follows: Inhibition of equine serum BuChE using butyrylthiocholine iodide as substrate preincubated for 5 mins followed by substrate addition by DTNB based Ellman's method.
For data set [2], the target named is Amyloid-beta precursor protein (Homo sapiens) (UniProt P05067). The data set is described as follows: Modulation of amyloid beta (1 to 42) (unknown origin) self aggregation assessed as increase in fluorescence intensity at 0.03 to 0.1 uM incubated for 24 hrs by Thioflavin T fluorescence assay. The note with it: filed as modulator, dose 0.03-0.1 µM.
Data set [3] deals with T2, Acetylcholinesterase (Electrophorus electricus, UniProt O42275). Nature of the data set: Mixed type inhibition of electric eel AChE using acetylthiocholine iodide as substrate assessed as inhibition constant of second plot of intercept preincubated for 5 mins followed by substrate addition and measured after 5 mins by Ellman's method based double reciprocal Lineweaver-Burk plot analysis.

In data set [4] the target is T2, Acetylcholinesterase. Nature of the data set: Inhibition of electric eel AChE using acetylthiocholine iodide as substrate preincubated for 5 mins followed by substrate addition by DTNB based Ellman's method.
Data set [5] concerns the target T1, Acetylcholinesterase. Nature of the data set: Binding affinity to AChE (unknown origin) assessed as decrease in negative bands intensity towards the baseline at […] incubated for 5 mins by Circular dichroism analysis. As to conditions: dose lower 0.001 nM.
Data set [6] concerns the target Amyloid-beta precursor protein (Homo sapiens) (UniProt P05067). The data set is described as follows: Modulation of amyloid beta (1 to 42) (unknown origin) assembly assessed as morphological changes in amyloid beta (1 to 42) aggregates at 1 mM incubated for 3 days by FE-SEM image analysis relative to control. As to conditions: filed as modulator, time 3.0 day.
Data set [7] has as its system SK-N-SH. The data set is described as follows: Neuroprotective activity against H2O2 induced oxidative cell damage in human SK-N-SH cells assessed as increase in cell viability at 90 uM preincubated for 3 hrs followed by H2O2 stimulation for 2 hrs by MTT assay (Rvb= 40%). In kind it is functional. (Formazan colour is commonly taken as a measure of viable cells.)
Data set [8] has as its target T1, Acetylcholinesterase. The data set is described as follows: Binding affinity to AChE (unknown origin) assessed as reduction in intrinsic fluorescence intensity at pH 7.2 at 0.001 to 0.009 mM incubated for 5 mins by fluorescence quenching analysis. As to conditions: dose 0.001-0.009 mM.
A short description of data set [9]: Selectivity ratio, ratio of IC50 for inhibition of equine serum BuChE to IC50 for inhibition of electric eel AChE.
The test system of another data set is Supercoiled DNA. The data set is described as follows: Induction of supercoiled pBR322 plasmid DNA (unknown origin) cleavage assessed as DNA nicking at 10 uM incubated for 2 hrs by Agarose gel electrophoresis analysis. The format is nucleic-acid assay.
A short description of data set [10]: Cytotoxicity against human SK-N-SH cells assessed as cell viability at 30 to 60 uM incubated for 24 hrs by MTT assay. The format is toxicity, cell-based. As to conditions: dose 30-60 µM, read-out: Activity.
Data set [11] deals with T1, Acetylcholinesterase. Nature of the data set: Binding affinity to AChE (unknown origin) assessed as static fluorescence quenching at pH 7.2 at 0.001 to 0.009 mM incubated for 5 mins by Stern-Volmer quenching plot based fluorescence spectroscopy. The note with it: dose 0.001-0.009 mM.
Data set [12] can be described thus: Antioxidant activity assessed as ABTS radical scavenging activity incubated for 30 mins by spectrophotometric analysis. The format is functional.
Data set [13] concerns the target T2, Acetylcholinesterase. Nature of the data set: Mixed type inhibition of electric eel AChE using acetylthiocholine iodide as substrate assessed as inhibition constant of second plot of slope preincubated for 5 mins followed by substrate addition and measured after 5 mins by Ellman's method based double reciprocal Lineweaver-Burk plot analysis.
Data set [14] relates to SK-N-SH. The data set is described as follows: Neuroprotective activity against H2O2 induced oxidative cell damage in human SK-N-SH cells assessed as increase in cell viability at 30 to 60 uM preincubated for 3 hrs followed by H2O2 stimulation for 2 hrs by MTT assay (Rvb= 40%). In kind it is functional, cell-based. As to conditions: dose 30-60 µM.
The target in data set [15] is T1, Acetylcholinesterase. The data set is described as follows: Binding affinity to AChE (unknown origin) assessed as gibbs free energy change at temperature of 298 K at 0.001 to 0.009 mM incubated for 5 mins by fluorescence quenching analysis. As to conditions: dose 0.001-0.009 mM.
In data set [16] the target is Acetylcholinesterase (Electrophorus electricus) (UniProt O42275). Nature of the data set: Mixed type inhibition of electric eel AChE using acetylthiocholine iodide as substrate assessed as decrease in Vmax and increase in Km preincubated for 5 mins followed by substrate addition and measured after 5 mins by Ellman's method based double reciprocal Lineweaver-Burk plot analysis. The note with it: time 10.0 min.

Molecules are shown by their SMILES. Calls of active or inactive are those of the source. The calls are words filed in the database; no cut-off is given here.

T2 sequence (O42275 whole entry): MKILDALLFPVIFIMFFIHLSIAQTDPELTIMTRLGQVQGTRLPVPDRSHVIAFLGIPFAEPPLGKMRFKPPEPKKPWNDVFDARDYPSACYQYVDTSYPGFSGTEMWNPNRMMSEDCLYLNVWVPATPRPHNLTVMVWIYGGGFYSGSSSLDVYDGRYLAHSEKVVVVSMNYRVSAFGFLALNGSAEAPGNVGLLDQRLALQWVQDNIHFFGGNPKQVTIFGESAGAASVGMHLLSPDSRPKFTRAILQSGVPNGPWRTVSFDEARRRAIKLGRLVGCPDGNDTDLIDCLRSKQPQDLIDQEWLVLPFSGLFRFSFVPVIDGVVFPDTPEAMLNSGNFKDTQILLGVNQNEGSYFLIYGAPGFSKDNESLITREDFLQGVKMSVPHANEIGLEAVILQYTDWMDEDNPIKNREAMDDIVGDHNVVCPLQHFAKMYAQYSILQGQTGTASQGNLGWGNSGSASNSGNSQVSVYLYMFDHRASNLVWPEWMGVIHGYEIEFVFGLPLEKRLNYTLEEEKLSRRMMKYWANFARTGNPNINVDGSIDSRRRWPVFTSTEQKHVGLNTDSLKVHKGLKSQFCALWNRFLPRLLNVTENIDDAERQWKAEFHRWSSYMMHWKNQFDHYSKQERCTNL
T1 sequence (P22303 whole entry): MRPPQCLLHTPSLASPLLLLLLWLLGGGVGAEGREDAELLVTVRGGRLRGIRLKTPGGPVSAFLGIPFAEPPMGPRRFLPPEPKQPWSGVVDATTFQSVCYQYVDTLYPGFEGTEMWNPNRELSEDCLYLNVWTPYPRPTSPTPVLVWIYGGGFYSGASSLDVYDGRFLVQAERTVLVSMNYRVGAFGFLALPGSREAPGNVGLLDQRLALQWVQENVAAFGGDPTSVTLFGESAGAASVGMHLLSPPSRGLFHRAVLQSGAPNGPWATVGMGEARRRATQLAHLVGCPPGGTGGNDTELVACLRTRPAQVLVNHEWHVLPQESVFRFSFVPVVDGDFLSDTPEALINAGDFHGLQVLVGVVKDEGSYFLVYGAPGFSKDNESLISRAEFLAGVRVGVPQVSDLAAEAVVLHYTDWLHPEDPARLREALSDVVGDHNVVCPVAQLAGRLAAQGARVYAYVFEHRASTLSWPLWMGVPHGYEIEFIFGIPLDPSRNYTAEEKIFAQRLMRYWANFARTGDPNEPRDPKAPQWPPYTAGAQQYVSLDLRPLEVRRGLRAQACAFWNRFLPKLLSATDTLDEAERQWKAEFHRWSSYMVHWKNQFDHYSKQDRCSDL
Sequence of Amyloid-beta precursor protein (Homo sapiens) (P05067 whole entry): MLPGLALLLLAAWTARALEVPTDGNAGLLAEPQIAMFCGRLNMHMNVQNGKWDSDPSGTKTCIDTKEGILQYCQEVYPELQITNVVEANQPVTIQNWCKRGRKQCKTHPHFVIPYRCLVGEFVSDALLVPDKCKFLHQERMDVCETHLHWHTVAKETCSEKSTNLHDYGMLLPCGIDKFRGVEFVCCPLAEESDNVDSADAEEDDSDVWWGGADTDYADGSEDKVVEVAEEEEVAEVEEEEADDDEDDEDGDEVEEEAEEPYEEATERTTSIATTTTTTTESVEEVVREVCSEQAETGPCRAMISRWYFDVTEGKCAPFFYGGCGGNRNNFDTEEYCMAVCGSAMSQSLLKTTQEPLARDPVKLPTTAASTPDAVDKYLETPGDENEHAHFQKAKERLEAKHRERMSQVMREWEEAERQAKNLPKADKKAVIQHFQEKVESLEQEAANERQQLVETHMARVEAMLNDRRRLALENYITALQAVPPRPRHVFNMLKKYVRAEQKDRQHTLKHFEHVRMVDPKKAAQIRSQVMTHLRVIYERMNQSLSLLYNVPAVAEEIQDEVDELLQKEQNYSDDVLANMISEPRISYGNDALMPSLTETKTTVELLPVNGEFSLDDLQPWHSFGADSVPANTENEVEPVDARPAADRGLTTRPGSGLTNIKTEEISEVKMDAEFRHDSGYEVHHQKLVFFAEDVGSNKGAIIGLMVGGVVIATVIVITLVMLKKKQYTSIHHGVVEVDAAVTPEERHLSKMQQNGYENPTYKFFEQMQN
Sequence of Cholinesterase (P81908 whole entry): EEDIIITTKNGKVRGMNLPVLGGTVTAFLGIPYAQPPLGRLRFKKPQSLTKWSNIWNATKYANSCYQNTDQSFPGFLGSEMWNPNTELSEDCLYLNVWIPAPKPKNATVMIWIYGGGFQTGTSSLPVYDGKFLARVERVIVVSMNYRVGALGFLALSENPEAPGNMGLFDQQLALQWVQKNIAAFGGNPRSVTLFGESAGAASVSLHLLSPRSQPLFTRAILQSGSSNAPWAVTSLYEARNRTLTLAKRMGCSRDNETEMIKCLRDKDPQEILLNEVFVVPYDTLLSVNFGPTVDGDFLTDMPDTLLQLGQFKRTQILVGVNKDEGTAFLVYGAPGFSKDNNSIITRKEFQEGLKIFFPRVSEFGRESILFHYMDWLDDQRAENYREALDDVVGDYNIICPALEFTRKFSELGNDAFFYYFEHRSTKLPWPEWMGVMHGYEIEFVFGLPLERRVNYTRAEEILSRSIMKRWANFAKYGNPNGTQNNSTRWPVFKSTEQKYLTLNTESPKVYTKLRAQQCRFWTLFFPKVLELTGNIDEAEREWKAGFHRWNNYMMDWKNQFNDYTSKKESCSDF
Sequence of Acetylcholinesterase (Electrophorus electricus) (O42275 24-633 limits assumed): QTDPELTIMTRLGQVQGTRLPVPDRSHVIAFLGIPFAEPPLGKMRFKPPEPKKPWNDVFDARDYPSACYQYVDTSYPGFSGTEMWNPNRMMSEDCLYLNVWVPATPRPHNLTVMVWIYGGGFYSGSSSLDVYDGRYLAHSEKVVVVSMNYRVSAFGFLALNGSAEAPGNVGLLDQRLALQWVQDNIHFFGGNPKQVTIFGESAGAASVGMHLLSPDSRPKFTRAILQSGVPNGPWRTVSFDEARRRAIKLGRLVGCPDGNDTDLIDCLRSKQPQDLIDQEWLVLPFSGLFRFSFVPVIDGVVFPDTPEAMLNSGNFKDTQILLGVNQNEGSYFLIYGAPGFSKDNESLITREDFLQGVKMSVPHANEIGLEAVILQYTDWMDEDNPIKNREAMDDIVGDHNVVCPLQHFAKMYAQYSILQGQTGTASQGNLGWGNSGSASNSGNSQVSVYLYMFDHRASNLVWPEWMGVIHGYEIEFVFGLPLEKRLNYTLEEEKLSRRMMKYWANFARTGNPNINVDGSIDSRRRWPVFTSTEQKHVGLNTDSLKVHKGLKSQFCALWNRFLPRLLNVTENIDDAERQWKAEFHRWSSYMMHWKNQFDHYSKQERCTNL

As to `CCOP(=O)(OCC)C(Nc1ccc(C(=O)O)cc1)c1ccc(OCc2nc3ccccc3c(=O)n2-c2ccc(F)cc2)c(OC)c1` (stereo not drawn), the half-inhibitory concentration (IC50) against Acetylcholinesterase [1] came to 1160 nM; against Cholinesterase it was 20200 nM; at Acetylcholinesterase [4], 289 nM; in [12], 30100 nM. Moreover, the outcome (in [2]; in data set [6]; on Acetylcholinesterase [11]; in the data set on SK-N-SH [14]) was Active. Also, the Ki at Acetylcholinesterase [3] came to 292 nM; at Acetylcholinesterase [13], 297 nM. For the same molecule, the Activity entry at Acetylcholinesterase [5] was “Dose-Dependent Effect”; with SK-N-SH [7], 65%; on Acetylcholinesterase [8], “Dose-Dependent Effect”. Besides, in [9], the Ratio IC50 is 70.1. Also, in the data set on Supercoiled DNA, the result was inactive. The viability at 24 h, up to 60 µM in data set [10] is above 90%. Besides, the deltaG at Acetylcholinesterase [15] is -7.54 kcal/mol. In data set [16], the inhibition result was “Active”.
